Measurements: patent US20120060243A1, “Herbicide-Resistant AHAS-Mutants and Methods of Use” (priority 2008, published 2012)
Read-outs that look alike come from different tables or passages of the source.

How the values were obtained:
Format in all cases: in vivo, Brassica napus
[1] = tested on: BNCL120C7 (BN-02) (AHASIII A122T); assay: Field test herbicide injury, Minot; conditions: 200 g ai/ha, 15 days after treatment, A122T single mutant BNCL120C7 (BN-02)
Text: (§1) B. napus plants from the following spring oilseed rape lines: BN-02 (wild type), BN-T (wild type), BnCL131A1 in a BN-02 background genotype (AHAS III A122T S653N double mutant), BnCL120C7 in a BN-02 background genotype (BnAHASIII A122T), BnCL97 in a BN-02 background genotype (BnAHASIII S653N), PM1/PM2 in a BN-T background (two gene check: AHAS I S653N & AHAS III W574L), PM1 in a BN-T background (one gene check: AHAS I S653N) and PM2 in a BN-T background (one gene check: AHAS III W574L) were field tested at a site near Minot, N. Dak. Lines were planted in 5 m long single row plots and arranged in a two factorial split plot design with 3 repetitions and 4 treatments (0 g ai/ha imazamox, 50 g ai/ha imazamox, 100 g ai/ha imazamox and 200 g ai/ha imazamox). Plants were sprayed at the 2-4 leaf stage with the above mentioned imazamox treatments. The imazamox product (Beyond 120 g/L LC+0.25% (v/v) non-ionic surfactant) was diluted in 20 gallons per acre (or 200 liters/ha) and applied using a tractor mounted boom.
(§2) Herbicide injury was evaluated 15 days after treatment (DAT) on a per plot basis using a scale from 0 to 100%, where 0 was no injury and 100% was complete plant death.

[2] = tested on: BnCL131A1 (BN-02) (AHAS III A122T, S653N); assay: Field test herbicide injury, Minot; conditions: 200 g ai/ha
Text: as §1, §2

[3] = tested on: BnCL97 (BN-02) (AHASIII S653N); assay: Field test herbicide injury, Minot; conditions: 200 g ai/ha, 15 days after treatment, S653N single mutant BnCL97 (BN-02)
Text: as §1, §2

[4] = tested on: BnCL131A1 (He), A122T-S653N (He); conditions: 18 Days After Treatment, line BnCL131A1 (He); for Mean Percent Crop Phytotoxicity (% Crop Injury): field, 2-4 leaf stage
Text: (§3) Hand-crossed hybrids were produced in the greenhouse between two IMI-tolerant spring Brassica napus parental lines: “BnCL131A1” (homozygous for the A genome IMI-tolerant mutation AHASL1A-A122(At)T-S653(At)N) and “PM1PM2” (homozygous for the A genome AHAS-inhibitor tolerant mutation AHASL1A-W574(At)L (PM2) plus the C genome AHAS-inhibitor tolerant mutation AHASL1C-S653(At)N(PM1)). The resulting heterozygous hand-crossed hybrid line, “PM1PM2/BnCL131A 1” (heterozygous for the stacked mutations: AHASL1A-A122(At)T-S653(At)N, AHASL1A-W574(At)L (PM2), AHASL1C-S653(At)N(PM1)) was field tested together with lines each containing only one AHAS-inhibitor tolerant mutation (homozygous or heterozygous) and several spring Brassica napus checks.
(§4) The three repetition trial was conducted in Simcoe, N. Dak., and used a randomized split block design. The trial was designed to measure the percent phytotoxicity (% crop injury) of the different entries under 5 different imidazolinone herbicide treatment rates. Plants were sprayed at the 2-4 leaf stage at a volume of 100 liters/ha. The imidazolinone herbicide rates used were as follows (Imazamox=BEYOND™ 120 g/I LC (BAS 72001H); NIS=INDUCE™ 90 (90% non-ionic surfactant; Helena Chemical Co., Collierville, Tenn.):
(§5) Crop Injury Ratings were determined in the field by assessing each plot in the trial for the level of phytotoxicity (percent crop injury) on a scale from 0-100% at 18 days after treatment. Mean values for each entry across the three replications along with their statistical significance (ANOVA) are presented in Table 6 (Ho=homozygous; He=heterozygous). Each value presented in Table 6 is the mean of three replications.
(§6) The percent phytotoxicity (% crop injury) ratings were transposed into Herbicide Tolerance ratings by subtracting the percent crop injury rating (Table 6) for each line from 100% to obtain the percent herbicide tolerance (Table 7) (Ho=homozygous; He=heterozygous).

[5] = tested on: BnCL131A1 (Ho), A122T-S653N (Ho); conditions: 18 Days After Treatment, line BnCL131A1 (Ho); for Mean Percent Crop Phytotoxicity (% Crop Injury): field, 2-4 leaf stage
Text: as §3, §4, §5, §6

[6] = tested on: Bn WT 1; assay: Field trial crop phytotoxicity, Simcoe; conditions: 18 Days After Treatment, line Bn WT 1; for Mean Percent Crop Phytotoxicity (% Crop Injury): field, 2-4 leaf stage
Text: as §3, §4, §5, §6

[7] = tested on: Bn WT 2; assay: Field trial crop phytotoxicity, Simcoe; conditions: 18 Days After Treatment, line Bn WT 2; for Mean Percent Crop Phytotoxicity (% Crop Injury): field, 2-4 leaf stage
Text: as §3, §4, §5, §6

[8] = mean over 0, 35, 70, 140, 210 g ai/ha (N 15)

COCc1cnc(C2=NC(C)(C(C)C)C(=O)N2)c(C(=O)O)c1 (stereo not shown) [imazamox]
amount of tolerance (100% minus crop injury) [1]: 20%
amount of tolerance (100% minus crop injury) ([2]; field, 15 days after treatment, double mutant line BnCL131A1 (BN-02)): 62%
expected tolerance if additive (A122T plus S653N) ([2]; sum of tolerances of the two single mutant lines): 37%
amount of tolerance (100% minus crop injury) [3]: 17%
Mean Percent Crop Phytotoxicity (% Crop Injury) ([4]; 35 g ai/ha + 0.25% (v/v) NIS): 33.33%
Mean Percent Herbicide Tolerance (100% minus percent crop injury) ([4]; 35 g ai/ha): 66.7%
Mean Percent Crop Phytotoxicity (% Crop Injury) ([4]; 70 g ai/ha + 0.25% (v/v) NIS): 60%
Mean Percent Herbicide Tolerance (100% minus percent crop injury) ([4]; 70 g ai/ha): 40.0%
Mean Percent Crop Phytotoxicity (% Crop Injury) ([4]; 140 g ai/ha + 0.25% (v/v) NIS): 80%
Mean Percent Herbicide Tolerance (100% minus percent crop injury) ([4]; 140 g ai/ha): 20.0%
Mean Percent Crop Phytotoxicity (% Crop Injury) ([4]; 210 g ai/ha + 0.25% (v/v) NIS): 73.33%
Mean Percent Herbicide Tolerance (100% minus percent crop injury) ([4]; 210 g ai/ha): 26.7%
Mean Percent Crop Phytotoxicity (% Crop Injury), Mean over rates [4, 8]: 49.33%
Mean Percent Crop Phytotoxicity (% Crop Injury) ([5]; 35 g ai/ha + 0.25% (v/v) NIS): 16.67%
Mean Percent Herbicide Tolerance (100% minus percent crop injury) ([5]; 35 g ai/ha): 83.3%
Mean Percent Crop Phytotoxicity (% Crop Injury) ([5]; 70 g ai/ha + 0.25% (v/v) NIS): 31.67%
Mean Percent Herbicide Tolerance (100% minus percent crop injury) ([5]; 70 g ai/ha): 68.3%
Mean Percent Crop Phytotoxicity (% Crop Injury) ([5]; 140 g ai/ha + 0.25% (v/v) NIS): 43.33%
Mean Percent Herbicide Tolerance (100% minus percent crop injury) ([5]; 140 g ai/ha): 56.7%
Mean Percent Crop Phytotoxicity (% Crop Injury) ([5]; 210 g ai/ha + 0.25% (v/v) NIS): 55%
Mean Percent Herbicide Tolerance (100% minus percent crop injury) ([5]; 210 g ai/ha): 45.0%
Mean Percent Crop Phytotoxicity (% Crop Injury), Mean over rates [5, 8]: 29.33%
Mean Percent Crop Phytotoxicity (% Crop Injury) ([6]; 35 g ai/ha + 0.25% (v/v) NIS): 85%
Mean Percent Herbicide Tolerance (100% minus percent crop injury) ([6]; 35 g ai/ha): 15.0%
Mean Percent Crop Phytotoxicity (% Crop Injury) ([6]; 70 g ai/ha + 0.25% (v/v) NIS): 96.67%
Mean Percent Herbicide Tolerance (100% minus percent crop injury) ([6]; 70 g ai/ha): 3.3%
Mean Percent Crop Phytotoxicity (% Crop Injury) ([6]; 140 g ai/ha + 0.25% (v/v) NIS): 100%
Mean Percent Herbicide Tolerance (100% minus percent crop injury) ([6]; 140 g ai/ha): 0.0%
Mean Percent Crop Phytotoxicity (% Crop Injury) ([6]; 210 g ai/ha + 0.25% (v/v) NIS): 98.33%
Mean Percent Herbicide Tolerance (100% minus percent crop injury) ([6]; 210 g ai/ha): 1.7%
Mean Percent Crop Phytotoxicity (% Crop Injury), Mean over rates [6, 8]: 76%
Mean Percent Crop Phytotoxicity (% Crop Injury) ([7]; 35 g ai/ha + 0.25% (v/v) NIS): 95%
Mean Percent Herbicide Tolerance (100% minus percent crop injury) ([7]; 35 g ai/ha): 5.0%
Mean Percent Crop Phytotoxicity (% Crop Injury) ([7]; 70 g ai/ha + 0.25% (v/v) NIS): 100%
Mean Percent Herbicide Tolerance (100% minus percent crop injury) ([7]; 70 g ai/ha): 0.0%
Mean Percent Crop Phytotoxicity (% Crop Injury) ([7]; 140 g ai/ha + 0.25% (v/v) NIS): 100%
Mean Percent Herbicide Tolerance (100% minus percent crop injury) ([7]; 140 g ai/ha): 0.0%
Mean Percent Crop Phytotoxicity (% Crop Injury) ([7]; 210 g ai/ha + 0.25% (v/v) NIS): 100%
Mean Percent Herbicide Tolerance (100% minus percent crop injury) ([7]; 210 g ai/ha): 0.0%
Mean Percent Crop Phytotoxicity (% Crop Injury), Mean over rates [7, 8]: 79%
